According to patent US11266710B2, “Angio-3 for treatment of retinal angiogenic diseases” (SINGAPORE HEALTH SERVICES PTE LTD, priority 2017, dated 2022):
Where no end group is shown, it is not given here.

Assays:
[1] = test system: retinal function (a- and b-wave) in B6J WT mice; assay: Retinal function test (ERG) in laser-induced CNV mice; format: in vivo, mouse; settings: laser-induced CNV mice with and without Angio-3 treatment
Method: (§1) FIG. 3A is a schematic of the experimental design on the efficacy of Angio-3 in a laser-induced choroidal neovascularization (CNV) model in mice (B6J WT mice). FIG. 3B are FFA images of baseline and at different time points post treatment. IV single injection of 100 μL of Angio-3 (25 mg/Kg Bwt) was given at Day 0 (prevention mode) and 4 days after laser (regression mode) and followed for 10 weeks. FIG. 3C is a graph showing the area of leakage by each eye for various groups. FIG. 3D are graphs of the mean area of leakage of all batches for each group. […] The attenuation retinal vascularization was better than scrambled peptide. n=6 eyes per batch; n=3 batches. Values are expressed as means±s.e.m., **P<0.01, *P<0.05, student's t-test. FIG. 3E is a graph of the result of the Retinal Function Test that measures ERG changes in Angio-3 treated and control.
Animals were dark-adapted overnight (12 h), and the preparations for recordings were carried out under dim red light. Anesthesia and pupil dilation were induced as described. Animals were lightly secured to a stage with fastener strips across the upper and lower back to ensure a stable, reproducible position for ERG recordings. […] ERGs were recorded (Espion; Diagnosis LLC, Redwood City, Calif.) with corneal monopolar electrodes (Mayo, Aichi, Japan). […]

[2] = test system: laser-induced CNV in C57/BL6J (B6J) wild type mice; assay: Laser-induced choroidal neovascularization (CNV) model in mice, area of leakage by FFA; format: in vivo; settings: mice; IV route
Method: as §1
FIG. 4A is a schematic of the experimental design on the efficacy of Angio-3 by IVT administration. […]
FIG. 11 A are FFA images of baseline and at different time points post treatment. Mice received single IVT injection of Angio-3 (at a dose of 1 μg in 1 μl or 100 ng in 1 μl), and chemically modified Angio-3 peptides Pep-N (at doses of 5 μg in μl; 1 μg in μl; and 100 ng in 1 μl, respectively) and Pep-Q peptides (at doses of 5 μg in μl; 1 μg in μl; and 100 ng in 1 μl, respectively). FIG. 11 B is a graph of the area of leakage by each eye. Single dose attenuates retinal angiogenesis in laser-induced mice CNV model via IVT route till 4 weeks. […] Eylea is the positive control. n=18 eyes per group; Values are expressed as means±s.e.m. n=3 independent experiment, **P<0.01, *P<0.05, student's t-test.
Laser induced choridal neo-vascularization (CNV) in C57/BL6J (B6J) wild type mice (n=90).
In B6J mice, single injection of 100 μl volume at 25 mg/kg Bwt concentration Angio-3 was injected via intravenous (i/v) route and this was tested in both Preventive mode (before laser) and Regression mode (4 days after laser). […]
Angio-3 was also injected via intravitreal (IVT) route, single injection of 1 μl volume at 2 different doses; 1 μg (High dose) and 100 ng (Low dose).
4 laser photocoagulation sites were placed concentrically around the optic disc of both eyes to induce CNVs. A diode laser (810 nm) was used with a relative potency scale of 120 mW for mice and 250 mW for rats, an exposure time of 0.05 s, and a spot size of […]. Laser spots were focused with crystal covers to avoid laser beam dispersion. Bubble formation was confirmed the rupture of Bruch's membrane.
Fundus photography and fundus fluorescein angiography (FFA) was imaged using a MICRON IV fundus camera (Phoenix Laboratories USA). For FFA, animals were intraperitoneally injected with 10% sodium fluorescein at a dose of 0.01 ml per 5-6 gm body weight.
In B6J mice, single intravitreous (IVT) injection of 100 ng, 1 μg, 5 μg PEP-Q, PEP-N (modified Angio-3), Angio-3 and Eylea were executed and this was tested in Prevention mode (before laser) Method of Llser induced CNV model and injection was described as above.

[3] = test system: corneal epithelial wound in wild-type mice; assay: Corneal wound healing in a mouse model; format: in vivo; settings: day 0 to Day 5; treated vs control wild-type mice
From the text: FIGS. 28A and 28B are images and a graph showing results of testing wound healing in a mouse model. FIG. 28A are representative slitlamp biomicroscopy images of murine cornea following the removal of corneal epithelium from Angio-3 treated and control wild-type mice and topical fluorescein staining of the epithelial defect (green). FIG. 28B is a graph of the percentage of wound defect remaining (vertical axis) over time (horizontal axis) in Angio-3 treated and control wild-type mice, n=6 for each group from 2 independent experiments. Both groups are statistically significant. Angio-3 didn't affect the normal wound healing process. Data is represented as mean±S.D.
Two (2)-mm trephine was used to mark the wound size. Epithelium, basement membrane and some stromal layers were removed by peeling using forceps. Fluorescein staining to the wounded area of cornea was done from day 0 to Day 5 (n=6 mice per group from 2 independent experiments). Gentle and meticulous approach when wounding and handling mouse cornea, fluorescein was diluted, slit lamp images had to be taken within a few seconds after staining. The wound area was quantified by ImageJ software. Student's t-test was used to compare data between two groups; P<0.05 was considered to be significant.

[4] = test system: KIBA mice that overexpress hVEGF; assay: Retinal function tests (ERG) in KIBA/KIMBA mice overexpressing hVEGF; format: in vivo, mouse; settings: IVT treated; 2nd IVT at 12 weeks after 1st treatment
Method: Eight-week-old KIBA mice that overexpress hVEGF were dark-adapted overnight (for at least 12 hours) and all the procedures were carried out under dim red light. Mice were anesthetized with a combination of ketamine (20 mg/kg body weight) and xylazine (2 mg/kg body weight). Pupils were dilated with a topical administration of 1% tropicamide (Alcon Laboratories, Inc., Fort Worth, Tex., USA) and 2.5% phenylephrine (Bausch and Lomb Pharmaceuticals, Inc., Tampa, Fla., USA) ophthalmic solutions.
Animals were placed in ERG recording table with body temperature controller for ERG recordings. Electroretinograms were recorded (Espion; Diagnosys LLC, Lowell, Mass., USA) with corneal monopolar electrodes. A goldcup electrode was placed in the mouth to serve as the reference electrode, and a silver-silver chloride electrode (Grass-Telefactor, West Warwick, R.I., USA) was placed in the tail to serve as the ground electrode. Recordings were performed at a wide range of stimulus intensity (−3.0 to 1.0 log cd·s/m2) in dark-adapted (scotopic) condition. The response a teach flash intensity was an average of at least five trials. […]
ERG was recorded from 8 weeks old to 24 weeks old of mice in untreated group (naïve group). In Angio-3 IVT treated group, ERG was recorded at 8 weeks old as baseline (BL) and then 6 and 12 weeks post treatment. […]

TPHTHNRTPE [Angio-3, Thr Pro His Thr His Asn Arg Thr Pro Glu]
retinal function (ERG a- and b-wave amplitude) [1]: no significant difference in retinal function | natural wound healing process, menstrual cycle and behavioural change (safety of systemic route) [2]: did not affect the natural wound healing process, menstrual cycle and behavioural change | normal corneal wound healing process (percentage of wound defect remaining) [3]: didn't adversely affect the normal wound healing process | ERG a and b-wave responses (retinal function) [4]: increased the a and b-wave responses for 6 weeks post treatment and then again increased the response for 20 weeks with second dose
